The text below walks through data of US5691135A, “Immunoglobulin superantigen binding to gp 120 from HIV” (The Regents of the University of California, priority 1994, dated 1997).

Values joined by “and” are separate entries in the source; they are usually repeats but may differ in a detail not shown here. Identical values can stand only once. “Also recorded” adds a separate entry of the source.

The test system of assay [1] is polyclonal serum IgM binding to gp120 from HIV-1SF2. More on the design: species or system human. To be noted: gp120 elisa.
The test system of assay [2] is monoclonal IgM HEA binding to gp120. More on the design: species or system human. To be noted: gp120 elisa.
Assay [3] concerns monoclonal IgM VIN binding to gp120. More on the design: species or system human. To be noted: gp120 elisa.
Assay [4] concerns monoclonal IgM RSJ binding to gp120. More on the design: species or system human. To be noted: gp120 elisa.
The subject of assay [5] is monoclonal IgM VNG binding to gp120. Details: species or system human. To be noted: gp120 elisa.
Assay [6] concerns panel of Ig-SAg binding antibodies (polyclonal IgM plus four monoclonal IgM) binding to gp120. More on the design: species or system human.
Assay [7] relates to VH3 IgM binding to gp120.
For assay [8], the system named is CD19+ tonsil B-cells. Format: cell-based, human.
Assay [9] deals with tonsil T-cells (CD19-, CD3+). The format is cell-based, human.

On to “LKCNDKKFSGKGSCKNVSTV [Peptide 1959, gp160 peptide 231-250, HIV-1 MN]”, for which the “RESIDUAL BINDING TO gp120 (% OF CONTROL), 1.0 μM PEPTIDE” value in [1] is recorded as 37.0 ± 4.4 % OF CONTROL; in assay [2], 28.3 ± 3.7 % OF CONTROL; in assay [3], 12.6 ± 1.0 % OF CONTROL; in assay [4] it was 40.5 ± 8.2 % OF CONTROL; in [5] it was 48.7 ± 0.9 % OF CONTROL. Also, the “RESIDUAL BINDING TO gp120 (% OF CONTROL), 10.0 μM PEPTIDE” value is 16.8 ± 8.4 % OF CONTROL in [1]; 8.4 ± 5.3 % OF CONTROL in [2]; 8.0 ± 0.2 % OF CONTROL in [3]; 17.2 ± 1.7 % OF CONTROL in assay [4]; 13.7 ± 3.6 % OF CONTROL in [5]. Moreover, the “peptide binding across all Ig tested” value in [6] is reported as “bound to all Ig tested”.
In the case of “MRVKGIRRNYQHWWGWGTM [Peptide 1919, gp160 peptide, amino acids 1-20, HIV-1 MN]”, the “RESIDUAL BINDING TO gp120 (% OF CONTROL), 1.0 μM PEPTIDE” value in assay [1] was 17.6 ± 0.2 % OF CONTROL; in assay [2] it was 56.1 ± 3.6 % OF CONTROL; in assay [3], 28.1 ± 5.0 % OF CONTROL; in assay [4] it was 11.1 ± 1.5 % OF CONTROL; in [5], 46.4 ± 20.2 % OF CONTROL. Further, the “RESIDUAL BINDING TO gp120 (% OF CONTROL), 10.0 μM PEPTIDE” value in assay [2] is 15.1 ± 2.1 % OF CONTROL; in [3] it was 14.8 ± 2.0 % OF CONTROL; in assay [4] it was 1.3 ± 0.1 % OF CONTROL; in assay [5] it was 3.3 ± 1.7 % OF CONTROL. For the same substance, in assay [6], the “inhibition of IgM binding to gp120 by shared peptides” value is “abolished the binding of IgM to gp120”. In assay [6], the “peptide binding across all Ig tested” value was “bound to all Ig tested; also recorded: bound to all of the monoclonal antibodies as well as to polyclonal serum IgM”. Besides, in assay [7], the “inhibition of gp120 binding to VH3 IgM” value is listed as “inhibited gp120 binding to VH3 IgM”.
As to “RQAHCNISRAKWNDTLRQIV [Peptide 1988, gp160 peptide 331-350, HIV-1 MN]”, the “RESIDUAL BINDING TO gp120 (% OF CONTROL), 1.0 μM PEPTIDE” value stood at 39.9 ± 3.6 % OF CONTROL in assay [1], 92.8 ± 0.4 % OF CONTROL in [2], 12.4 ± 0.6 % OF CONTROL in [3] and 20.3 ± 1.5 % OF CONTROL in assay [4]. Moreover, the “RESIDUAL BINDING TO gp120 (% OF CONTROL), 10.0 μM PEPTIDE” value in assay [1] amounted to 23.7 ± 9.7 % OF CONTROL; in [2], 40.8 ± 6.1 % OF CONTROL; in [3], 12.2 ± 7.8 % OF CONTROL; in assay [4], 13.5 ± 0.4 % OF CONTROL.
Turning to “TKAKRRVVQREKRAAIGALP [Peptide 2015, gp160 peptide 501-520, HIV-1 MN]”, the “RESIDUAL BINDING TO gp120 (% OF CONTROL), 1.0 μM PEPTIDE” value stood at 44.5 ± 5.4 % OF CONTROL in assay [1], 23.7 ± 3.4 % OF CONTROL in [3] and 83.0 ± 6.3 % OF CONTROL in assay [5]. Further, the “RESIDUAL BINDING TO gp120 (% OF CONTROL), 10.0 μM PEPTIDE” value was determined as 29.3 ± 5.1 % OF CONTROL in assay [1], 6.5 ± 2.0 % OF CONTROL in assay [3] and 37.7 ± 2.0 % OF CONTROL in [5].
Take “YTTKNIIGTIRQAHCNISRA [Peptide 1987, gp160 peptide 321-340, HIV-1 MN]”: in [4], the “RESIDUAL BINDING TO gp120 (% OF CONTROL), 1.0 μM PEPTIDE” value was found to be 56.8 ± 0.3 % OF CONTROL and the “RESIDUAL BINDING TO gp120 (% OF CONTROL), 10.0 μM PEPTIDE” value turned out to be 42.2 ± 3.4 % OF CONTROL.
Regarding actin, the “inhibition of gp120 binding to VH3 IgM” value in assay [7] is given as “neither actin nor the 1925 peptide inhibited”.
Regarding “gp120: recombinant gp120 from HIV-1SF2 expressed in CHO cells”, the “fraction of B-cell population (CD19+) that bound gp120” value in assay [8] is 4% and 3-6%. The “fraction of T-cell population (CD19-) that bound gp120” value in assay [9] is 68% and 65%.
Turning to thyroglobulin, in [7], the “inhibition of gp120 binding to VH3 IgM” value is recorded as “inhibited gp120 binding to VH3 IgM”.
